Assay results reported in patent US6395782B1, “Method of increasing longevity and preventing body weight wasting in autoimmune disease by using conjugated linoleic acid” (Wisconsin Alumni Research Foundation, priority 2001, dated 2002).

Tests used:
NZB/W F1 mice [1] = assay: CLA diet given after onset of proteinuria in NZB/W F1 mice (SLE model): survival and body weight; assay type: in vivo; conditions: p<0.05
Text: Materials. Conjugated linoleic acid (Natural Lipids Inc, Hovdebygda, Norway) contained 90% CLA (CLA-90) with the following C18:2 isomer distribution: 43.5% t10,c12, 41.9% c9,t11 and t9,c11, 1.5% t9,t11 and t10,t12, 0.9% c9,c11, 0.9% c10,c12. Other fatty acids in CLA-90 were 5.6% oleate, 1.4% palmitate, 0.5% linoleate, 0.4% stearate, and 3.4% unidentified compounds. All other chemicals and reagents were purchased from Sigma Chemical Co. (St. Louis, Mo.) unless specified.
Diet. Semi-purified powdered diet (TD94060, 99% basal mix, Harlan-Teklad, Madison, Wis.) was mixed with 0.5% oil (either CLA or corn oil) and 0.5% sucrose by weight, such that the final diet contained either 5.5% corn oil (control group) or 5% corn oil plus 0.5% CLA (CLA group) (Park Y et al., Lipids 32, 853 (1997)). […]
Animals. […] Once proteinuria was detected the mice were assigned either the control diet or 0.5% conjugated linoleic acid for the remainder of their life. […]
Feed Intake and Body Weight. Weekly body weight and survival of the mice were recorded from the beginning of the experiment to the time of death.
Urine Collection and Proteinuria Assay. […] Plates were mildly shaken for 5 min and the color reactions were read at 600 nm with a microtiter plate reader (Autoreader EL310, Bio-tek Instrument). […]
Statistical Analysis. […] Positive proteinuria ratio was analyzed by Fisher's exact test using a SAS computer program version 5.

[2] = test system: SLE patients and rodent models; assay: Comparison of CLA with n-3 fatty acids in SLE patients and rodent models; assay type: in vivo; conditions: CLA vs n-3 fatty acids
Text: Effects similar to those observed by the applicants can be observed using n-3 fatty acids in SLE patients and rodent models (Fernandes, G., et al., J. Immunol. 152:5979 (1994)). […] To have similar effects of 0.5% diet CLA, as described below, n-3 fatty acids would have to make up about 10% of the diet.

NZB/W F1 mice [3] = conditions: dietary CLA fed from weaning onward; cited from earlier work

## Conjugated linoleic acid [CLA]
NZB/W F1 mice [1]; 0.5% CLA in diet from detection of proteinuria (1 mg protein/ml urine) until death, vs 5.5% corn oil control diet, female NZB/W F1 mice
  prolonging of life span (lived longer than control diet): 55%
NZB/W F1 mice [1]; 0.5% CLA in diet from detection of proteinuria until death, vs control diet, NZB/W F1 mice
  reduction of body weight wasting (control lost more body weight than CLA diet): 35%
[2]
  effectiveness relative to n-3 fatty acids in comparable methods: about 20 times
NZB/W F1 mice [3]
  anti-DNA antibody production: does not significantly affect
  body weight loss vs control mice: lost less body weight
  onset of proteinuria: accelerates the onset of proteinuria
  survival from the onset of proteinuria vs control mice: lived longer
  total lifespan vs control animals: did not differ
